Measured values as given in ChEMBL document CHEMBL4251578, “Design, synthesis and biological evaluation of novel 2-aminobenzamides containing dithiocarbamate moiety as histone deacetylase inhibitors and potent antitumor agents” (Eur J Med Chem, 2018).
Active and inactive are the calls of the source. No cut-off for these calls is given here.

Columns and labels:
[1] = tested on: MGC-803; test: Antiproliferative activity against human MGC803 cells at 2 uM after 72 hrs by CCK-8 assay relative to control; type: functional; conditions: MGC-803, 72 h
[2] = tested on: MGC-803; test: Antiproliferative activity against human MGC803 cells at 8 uM after 72 hrs by CCK-8 assay relative to control; type: functional; conditions: MGC-803, 72 h
[3] = tested on: A-375; test: Antiproliferative activity against human A375 cells at 2 uM after 72 hrs by CCK-8 assay relative to control; type: functional; conditions: A-375, 72 h
[4] = tested on: A-375; test: Antiproliferative activity against human A375 cells at 8 uM after 72 hrs by CCK-8 assay relative to control; type: functional; conditions: A-375, 72 h
[5] = tested on: HeLa; test: Antiproliferative activity against human HeLa cells at 2 uM after 72 hrs by CCK-8 assay relative to control; type: functional
[6] = tested on: HeLa; test: Antiproliferative activity against human HeLa cells at 8 uM after 72 hrs by CCK-8 assay relative to control; type: functional
[7] = tested on: A-375; test: Antiproliferative activity against human A375 cells after 72 hrs by CCK-8 assay; type: functional, cell-based; conditions: A-375, 72 h
[8] = tested on: HeLa; test: Antiproliferative activity against human HeLa cells after 72 hrs by CCK-8 assay; type: functional, cell-based
[9] = tested on: SMMC-7721; test: Antiproliferative activity against human SMMC7721 cells after 72 hrs by CCK-8 assay; type: functional, cell-based; conditions: SMMC-7721, 72 h
[10] = tested on: NCI-H1299; test: Antiproliferative activity against human NCI-H1299 cells after 72 hrs by CCK-8 assay; type: functional, cell-based; conditions: NCI-H1299, 72 h
[11] = biological target: Histone deacetylase 2 (Homo sapiens, UniProt Q92769); test: Inhibition of human recombinant HDAC2 using Fluor de Lys-Green as substrate preincubated for 5 mins followed by substrate addition and measured after 1 hr by fluorescence assay
Chain of Histone deacetylase 2 (Q92769 whole entry): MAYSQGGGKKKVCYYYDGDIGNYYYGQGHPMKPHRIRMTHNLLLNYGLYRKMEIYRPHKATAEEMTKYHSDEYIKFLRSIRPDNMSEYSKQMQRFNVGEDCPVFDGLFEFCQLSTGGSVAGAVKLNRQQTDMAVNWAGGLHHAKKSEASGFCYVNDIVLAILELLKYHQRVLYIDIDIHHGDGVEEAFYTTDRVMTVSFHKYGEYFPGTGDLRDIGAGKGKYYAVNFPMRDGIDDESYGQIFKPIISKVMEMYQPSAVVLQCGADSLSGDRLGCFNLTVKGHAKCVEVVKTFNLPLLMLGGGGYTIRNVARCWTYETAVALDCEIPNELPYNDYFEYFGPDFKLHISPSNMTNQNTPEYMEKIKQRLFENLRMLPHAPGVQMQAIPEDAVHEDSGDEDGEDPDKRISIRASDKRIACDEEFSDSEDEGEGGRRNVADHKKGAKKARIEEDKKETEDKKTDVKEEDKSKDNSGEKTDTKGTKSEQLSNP

[12] = tested on: SMMC-7721; test: Inhibition of colony formation in human SMMC7721 cells after 7 days by crystal violet staining-based assay; type: functional, cell-based
[13] = tested on: SMMC-7721; test: Induction of apoptosis in human SMMC7721 cells assessed as viable cells at 0.125 umol/L after 72 hrs by Alexa Fluor 488 Annexin/propidium iodide staining-based flow cytometric analysis (reference value: 97.14%); type: functional; conditions: SMMC-7721, 72 h, read-out: Activity
[14] = tested on: SMMC-7721; test: Induction of apoptosis in human SMMC7721 cells assessed as early apoptotic cells at 0.125 umol/L after 72 hrs by Alexa Fluor 488 Annexin/propidium iodide staining-based flow cytometric analysis (reference value: 0.09%); type: functional
[15] = tested on: SMMC-7721; test: Induction of apoptosis in human SMMC7721 cells assessed as late apoptotic cells at 0.125 umol/L after 72 hrs by Alexa Fluor 488 Annexin/propidium iodide staining-based flow cytometric analysis (reference value: 0.29%); type: functional
[16] = tested on: SMMC-7721; test: Induction of apoptosis in human SMMC7721 cells assessed as necrotic cells at 0.125 umol/L after 72 hrs by Alexa Fluor 488 Annexin/propidium iodide staining-based flow cytometric analysis (reference value: 2.48%); type: functional
[17] = tested on: SMMC-7721; test: Induction of apoptosis in human SMMC7721 cells assessed as viable cells at 1 umol/L after 72 hrs by Alexa Fluor 488 Annexin/propidium iodide staining-based flow cytometric analysis (reference value: 97.14%); type: functional; conditions: SMMC-7721, 72 h, read-out: Activity
[18] = tested on: SMMC-7721; test: Induction of apoptosis in human SMMC7721 cells assessed as early apoptotic cells at 1 umol/L after 72 hrs by Alexa Fluor 488 Annexin/propidium iodide staining-based flow cytometric analysis (reference value: 0.09%); type: functional
[19] = tested on: SMMC-7721; test: Induction of apoptosis in human SMMC7721 cells assessed as late apoptotic cells at 1 umol/L after 72 hrs by Alexa Fluor 488 Annexin/propidium iodide staining-based flow cytometric analysis (reference value: 0.29%); type: functional
[20] = tested on: SMMC-7721; test: Induction of apoptosis in human SMMC7721 cells assessed as necrotic cells at 1 umol/L after 72 hrs by Alexa Fluor 488 Annexin/propidium iodide staining-based flow cytometric analysis (reference value: 2.48%); type: functional
[21] = tested on: SMMC-7721; test: Induction of apoptosis in human SMMC7721 cells assessed as viable cells at 4 umol/L after 72 hrs by Alexa Fluor 488 Annexin/propidium iodide staining-based flow cytometric analysis (reference value: 97.14%); type: functional; conditions: SMMC-7721, 72 h, read-out: Activity
[22] = tested on: SMMC-7721; test: Induction of apoptosis in human SMMC7721 cells assessed as early apoptotic cells at 4 umol/L after 72 hrs by Alexa Fluor 488 Annexin/propidium iodide staining-based flow cytometric analysis (reference value: 0.09%); type: functional
[23] = tested on: SMMC-7721; test: Induction of apoptosis in human SMMC7721 cells assessed as late apoptotic cells at 4 umol/L after 72 hrs by Alexa Fluor 488 Annexin/propidium iodide staining-based flow cytometric analysis (reference value: 0.29%); type: functional
[24] = tested on: SMMC-7721; test: Induction of apoptosis in human SMMC7721 cells assessed as necrotic cells at 4 umol/L after 72 hrs by Alexa Fluor 488 Annexin/propidium iodide staining-based flow cytometric analysis (reference value: 2.48%); type: functional
[25] = tested on: SMMC-7721; test: Cell cycle arrest in human SMMC7721 cells assessed as accumulation of cells at S phase at 0.125 umol/L after 72 hrs by propidium iodide staining-based flow cytometric analysis (reference value: 5.21%); type: functional
[26] = tested on: SMMC-7721; test: Cell cycle arrest in human SMMC7721 cells assessed as accumulation of cells at G2/M phase at 0.125 umol/L after 72 hrs by propidium iodide staining-based flow cytometric analysis (reference value: 14.14%); type: functional
[27] = tested on: SMMC-7721; test: Cell cycle arrest in human SMMC7721 cells assessed as accumulation of cells at G0/G1 phase at 1 umol/L after 72 hrs by propidium iodide staining-based flow cytometric analysis (reference value: 80.65%); type: functional
[28] = tested on: SMMC-7721; test: Cell cycle arrest in human SMMC7721 cells assessed as accumulation of cells at S phase at 1 umol/L after 72 hrs by propidium iodide staining-based flow cytometric analysis (reference value: 5.21%); type: functional
[29] = tested on: SMMC-7721; test: Cell cycle arrest in human SMMC7721 cells assessed as accumulation of cells at G2/M phase at 1 umol/L after 72 hrs by propidium iodide staining-based flow cytometric analysis (reference value: 14.14%); type: functional
[30] = tested on: SMMC-7721; test: Cell cycle arrest in human SMMC7721 cells assessed as accumulation of cells at G0/G1 phase at 4 umol/L after 72 hrs by propidium iodide staining-based flow cytometric analysis (reference value: 80.65%); type: functional
[31] = tested on: SMMC-7721; test: Cell cycle arrest in human SMMC7721 cells assessed as accumulation of cells at S phase at 4 umol/L after 72 hrs by propidium iodide staining-based flow cytometric analysis (reference value: 5.21%); type: functional
[32] = tested on: SMMC-7721; test: Cell cycle arrest in human SMMC7721 cells assessed as accumulation of cells at G2/M phase at 4 umol/L after 72 hrs by propidium iodide staining-based flow cytometric analysis (reference value: 14.14%); type: functional
[33] = tested on: MGC-803; test: Antiproliferative activity against human MGC803 cells after 72 hrs by CCK-8 assay; type: functional, cell-based; conditions: MGC-803, 72 h
[34] = tested on: HCT-116; test: Antiproliferative activity against human HCT116 cells after 72 hrs by CCK-8 assay; type: functional, cell-based; conditions: HCT-116, 72 h

| IC50 [7] [µM] | IC50 [8] [µM] | IC50 [9] [µM] | IC50 [10] [µM] | Structure (SMILES) | inhibition at 2 µM [1] [%] | inhibition at 8 µM [2] [%] | inhibition at 2 µM [3] [%] | inhibition at 8 µM [4] [%] | inhibition at 2 µM [5] [%] | inhibition at 8 µM [6] [%] | viability at 0.125 µM [13] [%] | Activity [14] [%] | Activity [15] [%] | Activity [16] [%] | viability at 1 µM [17] [%] | Activity [18] [%] | Activity [19] [%] | Activity [20] [%] | viability at 4 µM [21] [%] | Activity [22] [%] | further results |
| --- | --- | --- | --- | --- | --- | --- | --- | --- | --- | --- | --- | --- | --- | --- | --- | --- | --- | --- | --- | --- | --- |
| 7.67 | 11.8 | > 26 | 16.3 | Nc1ccc(F)cc1NC(=O)c1ccc(CNC(=O)/C=C/c2cccnc2)cc1 | 7.8 | 54.5 | 21.3 | 54.3 | 14.7 | 41.4 | 78.3 | 6.02 | 11.62 | 4.08 | 73.9 | 4.59 | 10.22 | 11.25 | 74.2 | 5.45 | IC50 [11]: 0.37 µM; inhibition [12]: Active; Activity [23]: 17.32%; Activity [24]: 3.06%; Activity [25]: 5.71%; Activity [26]: 17.2%; Activity [27]: 76.07%; Activity [28]: 5.26%; Activity [29]: 18.67%; Activity [30]: 76.41%; Activity [31]: 5.54%; Activity [32]: 18.05% |
| 3.67 | 1.6 | 5.97 | 6.74 | Nc1ccccc1NC(=O)c1ccc(CNC(=O)OCc2cccnc2)cc1 [ENTINOSTAT] | 25.3 | 67.2 | 30.2 | 88.7 | 62.2 | 76.6 | 77.5 | 4.56 | 8.41 | 9.56 | 73.9 | 11.21 | 9.64 | 5.22 | 57.3 | 20.06 | IC50 [33]: 4.89 µM; IC50 [34]: 0.47 µM; Activity [23]: 15.13%; Activity [24]: 7.47%; Activity [25]: 4.54%; Activity [26]: 17.36%; Activity [27]: 79.1%; Activity [28]: 5.35%; Activity [29]: 15.55%; Activity [30]: 71.21%; Activity [31]: 7.55%; Activity [32]: 21.24% |
